Test results: PMC8699884, “High-Throughput Functional Analysis of CFTR and Other Apically Localized Proteins in iPSC-Derived Human Intestinal Organoids” (Cells, 2021)

Target: T1, SLC6A14 (Homo sapiens, UniProt Q9UN76)
T1 construct: endogenous transporter in opened human intestinal organoids
T1 sequence (Q9UN76 1-642): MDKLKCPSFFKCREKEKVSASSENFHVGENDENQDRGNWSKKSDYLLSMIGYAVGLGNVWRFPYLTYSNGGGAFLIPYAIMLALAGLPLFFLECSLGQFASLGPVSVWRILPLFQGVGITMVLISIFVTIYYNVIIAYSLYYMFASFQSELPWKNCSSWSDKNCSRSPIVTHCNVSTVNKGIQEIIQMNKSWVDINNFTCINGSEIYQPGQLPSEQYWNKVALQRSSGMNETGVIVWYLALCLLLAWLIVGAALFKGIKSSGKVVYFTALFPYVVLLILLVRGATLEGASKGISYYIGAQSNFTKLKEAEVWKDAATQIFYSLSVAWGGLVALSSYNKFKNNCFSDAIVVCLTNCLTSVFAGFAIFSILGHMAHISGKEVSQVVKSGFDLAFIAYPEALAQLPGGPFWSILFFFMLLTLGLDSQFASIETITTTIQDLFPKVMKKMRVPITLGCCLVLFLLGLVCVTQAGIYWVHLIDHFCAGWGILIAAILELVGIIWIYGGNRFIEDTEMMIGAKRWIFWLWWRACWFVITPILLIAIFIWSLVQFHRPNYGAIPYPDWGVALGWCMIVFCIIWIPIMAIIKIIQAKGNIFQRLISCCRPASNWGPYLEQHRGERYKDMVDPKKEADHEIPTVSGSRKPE
Assay: FLIPR membrane potential (AAC) assay, α-MT-sensitive electrogenic uptake at […]
Assay type: cell-based

N=C(N)NCCC[C@H](N)C(=O)O [L-Arg]
FLIPR membrane potential (AAC) assay, α-MT-sensitive electrogenic uptake at 1 mM: the addition of arginine (L-Arg) to the apical surface of these opened organoids evokes apical membrane depolarization
